Read-outs that look alike come from different tables or passages of the source.
Tested on: peripheral blood mononuclear cells (PBMC)
Test: Cellular antiproliferative activity (PrestoBlue)
Type: cell-based, human
Settings: 48 h, read-out: Peripheral Blood Mononuclear Cell (PBMC) IC50
Protocol: (2012) was performed. PBMC isolation and testing was approved by the Ethics Committee of the Department of Natural and Agricultural Sciences, University of Pretoria, Pretoria (Doc nr: EC120411-046; 17.05.2012). Briefly, peripheral blood mononuclear cells were isolated from blood that was freshly donated on the same day at the Student Clinic at the University of Pretoria. Mononuclear cells were isolated by centrifugation over Ficoll-Hypaque, a density gradient solution, with a density gradient of 1.07 g/mL. A layer of fresh heparinized venous blood was layered on the Ficoll-Hypaque at a ratio of 1:1 with supplemented RPMI 1640 media and then subjected to centrifugation at 3000 rpm for 30 min. Through centrifugation, the whole blood sample was separated into its different layers. […] The cells were counted and seeded in 96-well plates with a cell density of 10,000 cells/mL. The following formula was used to adjust the cell concentrations (Equation 1): (1) Concentration of the cells=Cells counted/number of blocks counted×10000.
The HepG2 cell line was seeded with a concentration of 1 × 10^5 cells/well. […] The absorbance was read at 490 nm with a reference wavelength of 690 nm using a BIO-TEK Power-Wave XS multiwell plate reader. The assay was performed in triplicate, and the mean IC50 values were calculated.

Structure (SMILES): C[C@@H]1O[C@@H](O[C@@H]2[C@@H](O)[C@H](OCCc3ccc(O)c(O)c3)O[C@H](CO)[C@H]2OC(=O)/C=C/c2ccc(O)c(O)c2)[C@H](O)[C@H](O)[C@H]1O [Verbascoside]
- IC50: 170 ± 3.73 µM
- IC50 (Homo sapiens, PBMC): > 100 µM
